PMC5341858, “Molecular regulation of apoptotic machinery and lipid metabolism by mTORC1/mTORC2 dual inhibitors in preclinical models of HER2+/PIK3CAmut breast cancer” (Oncotarget, 2016)

Columns and labels:
[1] = target: T1, ABL1 (E255K)- phosphorylated (Homo sapiens, UniProt P00519, E255K); experiment: KINOMEscan binding assay; details: 1000 nM, percent control relative to vehicle
T1 construct: purchased DiscoveRx KINOMEscan
Text: (§1) IC50 values were generated using Graphpad PRISM 5 software.

AURKB = target: T2, AURKB (Homo sapiens, UniProt Q96GD4); experiment: KINOMEscan binding assay; details: 1000 nM, percent control relative to vehicle
T2 construct: purchased DiscoveRx KINOMEscan
Text: as §1

CDK11 = target: T3, CDK11 (Homo sapiens, UniProt Q9BWU1); experiment: KINOMEscan binding assay; details: 1000 nM, percent control relative to vehicle
T3 construct: purchased DiscoveRx KINOMEscan
T3 sequence (Q9BWU1 whole entry): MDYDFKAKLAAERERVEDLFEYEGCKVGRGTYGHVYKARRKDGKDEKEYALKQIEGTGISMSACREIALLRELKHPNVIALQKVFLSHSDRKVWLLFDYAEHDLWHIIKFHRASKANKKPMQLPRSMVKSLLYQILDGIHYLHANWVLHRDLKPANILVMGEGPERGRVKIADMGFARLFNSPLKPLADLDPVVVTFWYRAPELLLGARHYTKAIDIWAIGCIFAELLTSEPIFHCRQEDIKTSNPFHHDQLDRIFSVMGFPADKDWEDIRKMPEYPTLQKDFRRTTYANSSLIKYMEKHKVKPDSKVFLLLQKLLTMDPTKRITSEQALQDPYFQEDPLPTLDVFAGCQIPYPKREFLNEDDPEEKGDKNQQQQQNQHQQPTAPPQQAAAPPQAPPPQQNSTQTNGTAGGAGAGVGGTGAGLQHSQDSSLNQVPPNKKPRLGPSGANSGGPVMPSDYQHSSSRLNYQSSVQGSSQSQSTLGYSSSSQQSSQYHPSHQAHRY
Text: as §1

CDK3 = target: T4, CDK3 (Homo sapiens, UniProt Q00526); experiment: KINOMEscan binding assay; details: 1000 nM, percent control relative to vehicle
T4 construct: purchased DiscoveRx KINOMEscan
Text: as §1

CSNK1D = target: T5, CSNK1D (Homo sapiens, UniProt P48730); experiment: KINOMEscan binding assay; details: 1000 nM, percent control relative to vehicle
T5 construct: purchased DiscoveRx KINOMEscan
Text: as §1

EGFR (L858R) = target: T6, EGFR (L858R) (Homo sapiens, UniProt P00533, L858R); experiment: KINOMEscan binding assay; details: 1000 nM, percent control relative to vehicle
T6 construct: purchased DiscoveRx KINOMEscan
Text: as §1

ERBB2 = target: T7, ERBB2 (Homo sapiens, UniProt P04626); experiment: KINOMEscan binding assay; details: 1000 nM, percent control relative to vehicle
T7 construct: purchased DiscoveRx KINOMEscan
T7 sequence (P04626 23-1255): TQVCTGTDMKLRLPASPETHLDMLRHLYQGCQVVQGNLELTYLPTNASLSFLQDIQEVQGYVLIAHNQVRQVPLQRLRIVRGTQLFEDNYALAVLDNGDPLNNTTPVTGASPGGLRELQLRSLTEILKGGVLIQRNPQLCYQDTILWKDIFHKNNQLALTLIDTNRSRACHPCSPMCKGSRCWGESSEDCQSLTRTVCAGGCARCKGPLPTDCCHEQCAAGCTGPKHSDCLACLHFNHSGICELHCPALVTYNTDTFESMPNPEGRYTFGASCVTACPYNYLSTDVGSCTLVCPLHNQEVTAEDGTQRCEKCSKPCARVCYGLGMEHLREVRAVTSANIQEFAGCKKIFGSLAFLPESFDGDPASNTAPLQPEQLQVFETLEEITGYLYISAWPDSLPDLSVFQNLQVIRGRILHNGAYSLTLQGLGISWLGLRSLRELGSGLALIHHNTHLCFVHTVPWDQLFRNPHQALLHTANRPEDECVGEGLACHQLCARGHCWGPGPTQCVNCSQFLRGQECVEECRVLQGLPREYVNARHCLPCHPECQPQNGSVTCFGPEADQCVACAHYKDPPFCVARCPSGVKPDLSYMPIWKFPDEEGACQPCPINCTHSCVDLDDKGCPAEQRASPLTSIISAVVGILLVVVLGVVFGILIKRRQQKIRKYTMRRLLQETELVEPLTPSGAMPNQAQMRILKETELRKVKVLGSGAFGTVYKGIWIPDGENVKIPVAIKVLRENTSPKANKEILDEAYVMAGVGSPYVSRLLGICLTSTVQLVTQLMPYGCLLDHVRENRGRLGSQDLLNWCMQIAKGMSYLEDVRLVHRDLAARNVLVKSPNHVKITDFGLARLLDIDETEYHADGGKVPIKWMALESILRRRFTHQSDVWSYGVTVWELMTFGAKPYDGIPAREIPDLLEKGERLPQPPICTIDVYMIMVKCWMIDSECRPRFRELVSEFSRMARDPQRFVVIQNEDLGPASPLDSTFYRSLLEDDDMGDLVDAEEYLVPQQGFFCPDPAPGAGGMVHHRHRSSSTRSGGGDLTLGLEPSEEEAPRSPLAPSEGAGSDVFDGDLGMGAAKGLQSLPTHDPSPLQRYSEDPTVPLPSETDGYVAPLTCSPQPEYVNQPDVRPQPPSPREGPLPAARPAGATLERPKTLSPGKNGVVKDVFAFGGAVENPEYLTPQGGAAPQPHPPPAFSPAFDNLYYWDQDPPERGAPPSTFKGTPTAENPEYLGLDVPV
Text: as §1

FAK = target: T8, FAK (Homo sapiens, UniProt Q05397); experiment: KINOMEscan binding assay; details: 1000 nM, percent control relative to vehicle
T8 construct: purchased DiscoveRx KINOMEscan
Text: as §1

GSK3B = target: T9, GSK3B (Homo sapiens, UniProt P49841); experiment: KINOMEscan binding assay; details: 1000 nM, percent control relative to vehicle
T9 construct: purchased DiscoveRx KINOMEscan
Text: as §1

JNK3 = target: T10, JNK3 (Homo sapiens, UniProt P53779); experiment: KINOMEscan binding assay; details: 1000 nM, percent control relative to vehicle
T10 construct: purchased DiscoveRx KINOMEscan
Text: as §1

KIT(D816V) = target: T11, KIT(D816V) (Homo sapiens, UniProt P10721, D816V); experiment: KINOMEscan binding assay; details: 1000 nM, percent control relative to vehicle
T11 construct: purchased DiscoveRx KINOMEscan
Text: as §1

MEK2 = target: T12, MEK2 (Homo sapiens, UniProt P36507); experiment: KINOMEscan binding assay; details: 1000 nM, percent control relative to vehicle
T12 construct: purchased DiscoveRx KINOMEscan
T12 sequence (P36507 whole entry): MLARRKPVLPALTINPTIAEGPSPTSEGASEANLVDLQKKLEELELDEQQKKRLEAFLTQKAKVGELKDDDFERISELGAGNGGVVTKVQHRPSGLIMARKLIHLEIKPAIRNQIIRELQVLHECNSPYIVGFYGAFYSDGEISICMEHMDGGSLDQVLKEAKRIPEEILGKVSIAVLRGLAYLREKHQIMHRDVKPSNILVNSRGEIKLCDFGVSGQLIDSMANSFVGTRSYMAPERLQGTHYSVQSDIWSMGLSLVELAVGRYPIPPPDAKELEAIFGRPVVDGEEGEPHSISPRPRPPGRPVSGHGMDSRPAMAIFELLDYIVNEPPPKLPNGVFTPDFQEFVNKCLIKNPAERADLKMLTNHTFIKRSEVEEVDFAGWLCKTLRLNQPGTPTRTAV
Text: as §1

MKNK1 = target: T13, MKNK1 (Homo sapiens, UniProt Q9BUB5); experiment: KINOMEscan binding assay; details: 1000 nM, percent control relative to vehicle
T13 construct: purchased DiscoveRx KINOMEscan
Text: as §1

PAK1 = target: T14, PAK1 (Homo sapiens, UniProt Q13153); experiment: KINOMEscan binding assay; details: 1000 nM, percent control relative to vehicle
T14 construct: purchased DiscoveRx KINOMEscan
Text: as §1

PCTK1 = target: T15, PCTK1 (Homo sapiens, UniProt Q00536); experiment: KINOMEscan binding assay; details: 1000 nM, percent control relative to vehicle
T15 construct: purchased DiscoveRx KINOMEscan
Text: as §1

PDPK1 = target: T16, PDPK1 (Homo sapiens, UniProt O15530); experiment: KINOMEscan binding assay; details: 1000 nM, percent control relative to vehicle
T16 construct: purchased DiscoveRx KINOMEscan
T16 sequence (O15530 whole entry): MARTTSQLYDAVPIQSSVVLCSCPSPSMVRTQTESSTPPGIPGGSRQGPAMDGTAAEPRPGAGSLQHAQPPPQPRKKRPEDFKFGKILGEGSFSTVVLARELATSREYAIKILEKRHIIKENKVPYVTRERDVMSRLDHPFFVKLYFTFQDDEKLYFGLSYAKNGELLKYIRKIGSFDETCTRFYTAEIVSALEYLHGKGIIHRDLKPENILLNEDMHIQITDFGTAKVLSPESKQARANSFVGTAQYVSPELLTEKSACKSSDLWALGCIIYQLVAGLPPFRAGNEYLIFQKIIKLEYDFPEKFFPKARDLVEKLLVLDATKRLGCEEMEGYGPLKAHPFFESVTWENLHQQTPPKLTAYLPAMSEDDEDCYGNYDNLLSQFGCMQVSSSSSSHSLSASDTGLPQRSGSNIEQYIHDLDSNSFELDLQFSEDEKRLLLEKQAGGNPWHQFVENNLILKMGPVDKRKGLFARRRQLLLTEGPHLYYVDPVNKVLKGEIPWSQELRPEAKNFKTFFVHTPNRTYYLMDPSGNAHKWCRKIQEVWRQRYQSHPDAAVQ
Text: as §1

PIK3CA = PIK3CA (Homo sapiens, UniProt P42336); experiment: KINOMEscan binding assay
PIK3CA, sequence (P42336 whole entry): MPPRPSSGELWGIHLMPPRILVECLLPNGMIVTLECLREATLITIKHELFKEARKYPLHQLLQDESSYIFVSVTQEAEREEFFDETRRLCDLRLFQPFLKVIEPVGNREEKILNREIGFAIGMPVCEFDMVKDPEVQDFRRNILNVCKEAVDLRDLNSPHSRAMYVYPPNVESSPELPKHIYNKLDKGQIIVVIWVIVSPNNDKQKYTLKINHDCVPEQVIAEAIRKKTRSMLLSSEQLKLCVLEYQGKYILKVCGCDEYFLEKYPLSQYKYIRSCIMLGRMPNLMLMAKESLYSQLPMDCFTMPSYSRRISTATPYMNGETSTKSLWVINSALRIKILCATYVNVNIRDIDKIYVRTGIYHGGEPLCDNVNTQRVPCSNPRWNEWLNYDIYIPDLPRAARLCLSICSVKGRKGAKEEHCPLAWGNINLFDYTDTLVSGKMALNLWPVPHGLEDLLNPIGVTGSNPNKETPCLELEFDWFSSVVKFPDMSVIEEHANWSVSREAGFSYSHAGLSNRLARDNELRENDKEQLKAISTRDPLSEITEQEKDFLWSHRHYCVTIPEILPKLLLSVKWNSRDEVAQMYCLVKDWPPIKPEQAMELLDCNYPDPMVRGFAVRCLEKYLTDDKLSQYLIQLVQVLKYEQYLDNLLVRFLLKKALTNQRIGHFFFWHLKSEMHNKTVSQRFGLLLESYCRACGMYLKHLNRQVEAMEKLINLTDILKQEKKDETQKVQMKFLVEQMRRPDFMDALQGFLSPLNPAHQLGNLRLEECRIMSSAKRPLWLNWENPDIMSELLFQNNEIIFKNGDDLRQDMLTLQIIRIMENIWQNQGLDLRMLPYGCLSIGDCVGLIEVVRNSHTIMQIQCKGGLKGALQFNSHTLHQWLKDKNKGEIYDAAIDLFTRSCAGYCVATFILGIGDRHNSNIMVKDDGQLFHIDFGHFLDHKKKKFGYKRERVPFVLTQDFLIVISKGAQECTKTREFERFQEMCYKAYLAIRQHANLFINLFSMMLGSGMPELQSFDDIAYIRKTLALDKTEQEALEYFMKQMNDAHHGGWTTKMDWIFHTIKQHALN
Text: as §1

PRKCE = target: T17, PRKCE (Homo sapiens, UniProt Q02156); experiment: KINOMEscan binding assay; details: 1000 nM, percent control relative to vehicle
T17 construct: purchased DiscoveRx KINOMEscan
T17 sequence (Q02156 whole entry): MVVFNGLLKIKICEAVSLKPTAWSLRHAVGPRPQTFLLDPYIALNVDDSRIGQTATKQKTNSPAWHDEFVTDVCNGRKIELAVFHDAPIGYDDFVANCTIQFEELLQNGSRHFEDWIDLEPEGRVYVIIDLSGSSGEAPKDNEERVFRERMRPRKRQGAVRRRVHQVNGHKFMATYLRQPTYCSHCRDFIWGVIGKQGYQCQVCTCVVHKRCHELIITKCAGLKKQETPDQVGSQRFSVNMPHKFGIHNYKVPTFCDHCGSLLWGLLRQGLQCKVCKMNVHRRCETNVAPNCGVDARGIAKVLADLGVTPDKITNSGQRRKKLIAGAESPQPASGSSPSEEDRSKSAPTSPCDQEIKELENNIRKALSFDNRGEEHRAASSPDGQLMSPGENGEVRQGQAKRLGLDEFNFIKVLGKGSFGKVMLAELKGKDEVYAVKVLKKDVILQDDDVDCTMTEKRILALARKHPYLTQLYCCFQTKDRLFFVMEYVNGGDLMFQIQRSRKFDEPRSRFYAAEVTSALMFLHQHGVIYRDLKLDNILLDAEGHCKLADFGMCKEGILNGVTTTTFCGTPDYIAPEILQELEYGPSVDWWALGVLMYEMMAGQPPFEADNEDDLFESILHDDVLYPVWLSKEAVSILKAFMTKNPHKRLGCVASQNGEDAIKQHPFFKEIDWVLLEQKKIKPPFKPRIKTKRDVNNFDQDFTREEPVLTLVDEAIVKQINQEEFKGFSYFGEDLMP
Text: as §1

RIOK2 = target: T18, RIOK2 (Homo sapiens, UniProt Q9BVS4); experiment: KINOMEscan binding assay; details: 1000 nM, percent control relative to vehicle
T18 construct: purchased DiscoveRx KINOMEscan
Text: as §1

SRC = target: T19, SRC (Homo sapiens, UniProt P12931); experiment: KINOMEscan binding assay; details: 1000 nM, percent control relative to vehicle
T19 construct: purchased DiscoveRx KINOMEscan
Text: as §1

[2] = target: T20, TYK2 (JH1domain-catalytic) (Homo sapiens, UniProt P29597); experiment: KINOMEscan binding assay; details: 1000 nM, percent control relative to vehicle
T20 construct: TYK2 (JH1domain-catalytic); purchased DiscoveRx KINOMEscan
T20 sequence (P29597 888-1187 limits assumed): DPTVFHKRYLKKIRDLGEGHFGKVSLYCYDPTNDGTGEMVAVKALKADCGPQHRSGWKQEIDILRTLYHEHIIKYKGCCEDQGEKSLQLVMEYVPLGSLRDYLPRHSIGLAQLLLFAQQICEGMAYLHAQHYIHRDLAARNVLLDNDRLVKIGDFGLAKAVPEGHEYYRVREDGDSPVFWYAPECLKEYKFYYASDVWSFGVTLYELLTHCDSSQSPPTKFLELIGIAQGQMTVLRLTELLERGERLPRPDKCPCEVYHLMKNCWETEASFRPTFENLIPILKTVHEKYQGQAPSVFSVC
Text: as §1

[3] = tested on: mTORC1 substrates P-S6K1(T389), P-S6(S235/6), P-4EBP1(T70) and mTORC2 substrate P-AKT(S473) in 786-O, U87MG and MDA-MB-453 cells; experiment: Immunoblotting of mTORC1 and mTORC2 biomarkers in tumor cells; assay type: cell-based
Experimental: For standard assay of inhibitor effects on cellular biomarker expression, cells were plated at pre-determined density in 6-well or 12-well culture plates for overnight, treated with inhibitors for the indicated doses and times. Cells were lysed in NuPAGE-LDS lysis buffer (Invitrogen) and immunoblotted with antibodies including P-S6K1(T389), S6, P-4EBP1(T70), 4EBP1, P-GSK3(S21/9), GSK3, cyclin D1, Raptor, Rictor, P-ACL(S455), ACL, cleaved-PARP (Cell Signaling Technology); P-S6(S235/6), AKT(S473), AKT, Bim (Abcam-Epitomics); c-Myc (Santa Cruz); Mcl-1 (Affinity); CPT1A (Proteintech); β-actin and GAPDH (Bioworld).

[4] = tested on: HER2-/PIK3CAwt HCC1806 breast tumor model; experiment: In vivo antitumor efficacy, oral once daily; design: species or system mice; details: HCC1806 tumors; even at the highest 40 mg/kg oral qd
Experimental: Animal studies were performed under protocols approved by Institutional Animal Care and Use Committee (IACUC) of Fudan University. Balbc female nude mice bearing MDA-MB-453, HCC1806 or 786-O tumors were staged at initial tumor volume of 150-200 mm^3 and randomized into treatment groups (n=/>8). […] Lapatinib and Sunitinib were formulated in 0.5% hydroxypropyl methyl cellulose (HPMC)-0.2% tween-80 as homogeneous suspension. All test agents were prepared twice weekly. Mice were dosed orally once daily (qd). Tumor growth inhibition rate (TGI) was calculated: TGI=[1-(Vt-Vi)/(Vc-Vi)]×100, where Vt: tumor volume of drug treated group, Vc: tumor volume of vehicle control group, Vi: initial tumor volume at staging. For biomarker studies, frozen tumors were made lysates and immunoblotted as previously described. For detecting apoptosis, tumors were excised, fixed in 4% formalin for 24 h and embedded in paraffin. […] The slides were blocked in Tris buffered saline with 5% BSA-0.3 M glycine and reacted with anti-CPT1A (Proteintech #15184-1-AP) or anti-P-ACL S455 (Abcam #59297) and detected with peroxidase-conjugated secondary antibody (Jackson # 111-035-003). […] Staining levels were analyzed on the basis of mean optical density quantified by software image pro plus 6.0.

## CNC(=O)c1cccc(-c2ccc3c(N4C5CCC4COC5)nc(N4CCOC[C@@H]4C)nc3n2)c1 [MTI-31]
[1]
  % Control: 78%
AURKB
  % Control: 80%
CDK11
  % Control: 100%
CDK3
  % Control: 99%
CSNK1D
  % Control: 80%
EGFR (L858R)
  % Control: 100%
ERBB2
  % Control: 97%
FAK
  % Control: 89%
GSK3B
  % Control: 56%
JNK3
  % Control: 96%
KIT(D816V)
  % Control: 97%
MEK2
  % Control: 75%
MKNK1
  % Control: 90%
PAK1
  % Control: 100%
PCTK1
  % Control: 87%
PDPK1
  % Control: 97%
PIK3CA
  Kd: > 1000 nM
PIK3CA; 1000 nM, percent control relative to vehicle
  % Control: 100%
PRKCE
  % Control: 91%
RIOK2
  % Control: 80%
SRC
  % Control: 100%
[2]
  % Control: 63%
[3]; read-out: concentration achieving 50% inhibition of mTORC1 and mTORC2 substrates, 786-O, U87MG and MDA-MB-453 cells, 6 h treatment
  IC50: ≤ 120 nM
[3]; several relevant tumor models (cells), read-out: EC50, inhibition of mTORC1/mTORC2 signaling
  EC50: ≤ 120 nM
[4]
  antitumor efficacy: limited efficacy
